Measurements from PubChem BioAssay AID272 (DTP/NCI, 2004).
Values joined by “and” are separate entries in the source; they are usually repeats but may differ in a detail not shown here. Equal entries are not always repeated. Records with an inconclusive call do not appear.

Tested on: Lewis lung carcinoma i.m., BDF1 mice, T/C %
Assay: NCI In Vivo Anticancer Drug Screen. Data for tumor model Lewis Lung Carcinoma (intramuscular) in B6D2F1 (BDF1) mice
Protocol: The antitumor activity of compounds was measured in mice bearing transplantable tumors. Survival or tumor size were measured and the results are expressed as the measurement made in the treated group (T) divided by the measurement made in the vehicle treated control group (C). The tumor model used in this assay is Lewis Lung Carcinoma (intramuscular) in B6D2F1 (BDF1) mice

[1] = endpoint: mean tumor weight, dose: 25.0 mg/kg/injection, schedule: Q01DX011 (ip), vehicle: saline, higher = larger tumour
[2] = endpoint: mean tumor weight, dose: 40.0 mg/kg/injection, schedule: Q01DX011 (ip), vehicle: saline, higher = larger tumour
[3] = endpoint: median survival time, dose: 25.0 mg/kg/injection, schedule: Q01DX011 (ip), vehicle: saline, higher = longer survival

O=c1[nH]c(=O)n(C2CC(O)C(CO)O2)cc1F (centres undefined)
T/C (endpoint: mean tumor weight, dose: 10.0 mg/kg/injection, schedule: Q01DX009 (ip), vehicle: saline, higher = larger tumour): 59 % of control | T/C (endpoint: mean tumor weight, dose: 10.0 mg/kg/injection, schedule: Q01DX011 (ip), vehicle: other, higher = larger tumour): 83 % of control | T/C (endpoint: mean tumor weight, dose: 20.0 mg/kg/injection, schedule: Q01DX009 (ip), vehicle: saline, higher = larger tumour): 72 % of control | T/C (endpoint: mean tumor weight, dose: 20.0 mg/kg/injection, schedule: Q01DX011 (ip), vehicle: other, higher = larger tumour): 29 % of control | T/C (endpoint: mean tumor weight, dose: 20.0 mg/kg/injection, schedule: Q01DX011 (ip), vehicle: saline, higher = larger tumour): 31 % of control and 42 % of control | T/C [1]: 58 % of control | T/C (endpoint: mean tumor weight, dose: 40.0 mg/kg/injection, schedule: Q01DX009 (ip), vehicle: saline, higher = larger tumour): 65 % of control | T/C [2]: 10 % of control and 17 % of control | T/C (endpoint: mean tumor weight, dose: 50.0 mg/kg/injection, schedule: Q01DX011 (ip), vehicle: saline, higher = larger tumour): 18 % of control | T/C (endpoint: mean tumor weight, dose: 80.0 mg/kg/injection, schedule: Q01DX009 (ip), vehicle: saline, higher = larger tumour): 16 % of control | T/C (endpoint: mean tumor weight, dose: 80.0 mg/kg/injection, schedule: Q01DX011 (ip), vehicle: other, higher = larger tumour): 4 % of control | T/C (endpoint: mean tumor weight, dose: 80.0 mg/kg/injection, schedule: Q01DX011 (ip), vehicle: saline, higher = larger tumour): 7 % of control | T/C (endpoint: mean tumor weight, dose: 100.0 mg/kg/injection, schedule: Q01DX011 (ip), vehicle: saline, higher = larger tumour): 3 % of control | T/C (endpoint: median survival time, dose: 10.0 mg/kg/injection, schedule: Q01DX011 (ip), vehicle: other, higher = longer survival): 98 % of control | T/C (endpoint: median survival time, dose: 10.0 mg/kg/injection, schedule: Q01DX011 (ip), vehicle: saline, higher = longer survival): 107 % of control and 120 % of control | T/C (endpoint: median survival time, dose: 19.0 mg/kg/injection, schedule: Q01DX007 (sc), vehicle: saline, higher = longer survival): 100 % of control | T/C (endpoint: median survival time, dose: 20.0 mg/kg/injection, schedule: Q01DX011 (ip), vehicle: other, higher = longer survival): 108 % of control | T/C (endpoint: median survival time, dose: 20.0 mg/kg/injection, schedule: Q01DX011 (ip), vehicle: saline, higher = longer survival): 91 % of control and 112 % of control and 123 % of control | T/C (endpoint: median survival time, dose: 20.0 mg/kg/injection, schedule: Q01DX011 (ip), vehicle: water, higher = longer survival): 105 % of control | T/C [3]: 108 % of control | T/C (endpoint: median survival time, dose: 31.0 mg/kg/injection, schedule: Q01DX007 (sc), vehicle: saline, higher = longer survival): 121 % of control | T/C (endpoint: median survival time, dose: 40.0 mg/kg/injection, schedule: Q01DX009 (ip), vehicle: saline, higher = longer survival): 114 % of control and 115 % of control | T/C (endpoint: median survival time, dose: 40.0 mg/kg/injection, schedule: Q01DX011 (ip), vehicle: saline, higher = longer survival): 97 % of control and 100 % of control | T/C (endpoint: median survival time, dose: 40.0 mg/kg/injection, schedule: Q01DX011 (ip), vehicle: water, higher = longer survival): 113 % of control | T/C (endpoint: median survival time, dose: 50.0 mg/kg/injection, schedule: Q01DX009 (ip), vehicle: saline, higher = longer survival): 101 % of control | T/C (endpoint: median survival time, dose: 80.0 mg/kg/injection, schedule: Q01DX009 (ip), vehicle: saline, higher = longer survival): 124 % of control | T/C (endpoint: median survival time, dose: 80.0 mg/kg/injection, schedule: Q01DX011 (ip), vehicle: saline, higher = longer survival): 153 % of control | T/C (endpoint: median survival time, dose: 80.0 mg/kg/injection, schedule: Q01DX011 (ip), vehicle: water, higher = longer survival): 121 % of control | T/C (endpoint: median survival time, dose: 86.0 mg/kg/injection, schedule: Q01DX007 (sc), vehicle: saline, higher = longer survival): 121 % of control

Cc1n(CC(C)C)c2c([n+]1C)C(=O)c1ccccc1C2=O
T/C (endpoint: mean tumor weight (est.), dose: 2.0 mg/kg/injection, schedule: Q01DX011 (ip), vehicle: saline with Tween-80, higher = larger tumour): 40 % of control | T/C (endpoint: median survival time, dose: 2.0 mg/kg/injection, schedule: Q01DX011 (ip), vehicle: saline with Tween-80, higher = longer survival): 91 % of control

COc1ccc(C(=O)/C(Br)=C/C(=O)O)cc1
T/C [2]: 48 % of control

CC1(C)N=C(N)N=C(N)N1c1ccc(CCc2ccccc2)cc1
T/C (endpoint: mean tumor weight, dose: 12.5 mg/kg/injection, schedule: Q01DX011 (ip), vehicle: saline, higher = larger tumour): 84 % of control | T/C [1]: 46 % of control | T/C (endpoint: median survival time, dose: 12.5 mg/kg/injection, schedule: Q01DX011 (ip), vehicle: saline, higher = longer survival): 104 % of control | T/C [3]: 89 % of control

COC(=O)CC(OC)c1nc(C(=O)OC)c(C)c(=O)[nH]1 (centres undefined)
T/C (endpoint: median survival time, dose: 8.0 mg/kg/injection, schedule: Q01DX009 (ip), vehicle: Klucel (hydroxypropylcellulose) (HPC), higher = longer survival): 114 % of control | T/C (endpoint: median survival time, dose: 16.0 mg/kg/injection, schedule: Q01DX009 (ip), vehicle: Klucel (hydroxypropylcellulose) (HPC), higher = longer survival): 123 % of control | T/C (endpoint: median survival time, dose: 32.0 mg/kg/injection, schedule: Q01DX009 (ip), vehicle: Klucel (hydroxypropylcellulose) (HPC), higher = longer survival): 88 % of control
